Measurements from US10434079B2, “Compositions and methods for the treatment of fatty acid metabolism disorders” (The Children's Hospital of Philadelphia, priority 2013, dated 2019).

Assays:
wild-type VLCAD = target: T1, wild-type VLCAD (Mus musculus, UniProt P50544); experiment: Hepa 1 to 6 cells expressing FLAG-tagged wild-type VLCAD exposed to GSNO; assay type: cell-based
T1 construct: 3xFLAG (C); host or cells: Hepa 1 to 6 cells
T1 sequence (P50544 42-656): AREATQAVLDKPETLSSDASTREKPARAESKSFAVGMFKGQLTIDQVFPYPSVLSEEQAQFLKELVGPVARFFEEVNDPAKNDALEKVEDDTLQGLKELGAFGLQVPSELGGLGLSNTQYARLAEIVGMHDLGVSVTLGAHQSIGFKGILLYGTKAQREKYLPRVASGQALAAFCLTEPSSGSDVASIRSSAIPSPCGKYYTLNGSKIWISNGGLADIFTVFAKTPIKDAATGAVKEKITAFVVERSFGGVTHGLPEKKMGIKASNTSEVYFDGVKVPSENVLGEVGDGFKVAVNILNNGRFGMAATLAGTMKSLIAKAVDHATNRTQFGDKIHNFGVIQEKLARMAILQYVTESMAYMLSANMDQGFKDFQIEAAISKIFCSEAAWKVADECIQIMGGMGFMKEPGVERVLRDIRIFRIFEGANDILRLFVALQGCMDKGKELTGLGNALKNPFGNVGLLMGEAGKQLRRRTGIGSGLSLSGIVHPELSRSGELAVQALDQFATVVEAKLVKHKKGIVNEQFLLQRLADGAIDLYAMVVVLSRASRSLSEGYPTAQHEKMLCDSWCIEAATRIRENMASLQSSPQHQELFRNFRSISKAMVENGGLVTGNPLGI
Protocol: Liver homogenate (final concentration of 0.03 μg/μl) or cell lysate (final concentration of 0.09 μg/μl) in 100 mM potassium phosphate buffer (pH 7.2) containing 0.2% Triton X-100 and 0.1 mM EDTA was mixed with […] ferricenium ion, and the reaction was initiated by the addition of palmitoyl-CoA (the final volume of the assay was 130 μl). […] At least nine concentrations of palmitoyl-CoA, ranging from 0.015 to 2 mM, were used for the experimental determination of the apparent Vmax and KM of VLCAD for each animal. […] A unit of enzyme activity is defined as the amount of enzyme that causes the reduction of […] of ferricenium per minute at room temperature (ε=4.3 mM^−1 cm^−1 at 300 nm) (Izai et al. (1992) J. Biol. Chem., 267:1027-1033). […] The measurement of specific activity of VLCAD in liver homogenates (FIG. 2H) and cell lysates (FIG. 4) was performed in the presence of 0.25 and 0.125 mM palmitoyl-CoA, respectively.
Hepa 1 to 6 cells were grown in Dulbecco's modified Eagle's medium (DMEM) containing 10% fetal bovine serum, 2 mM glutamine, penicillin (100 U/ml), and streptomycin ([…]) at 37° C. in air with 5% CO2. Cells were plated at a density of 5×10^4 cells/cm^2 and cultured under normal conditions for 24 hours. Cells were transfected with FLAG®-tagged wild-type VLCAD or FLAG®-tagged C238A VLCAD with Lipofectamine® 2000 reagent (Life Technologies) according to the protocol provided by the manufacturer. Forty-eight hours after transfection, the growth medium was replaced with serum-free DMEM, and […] freshly prepared GSNO was added for 30 minutes, after which the cells were extensively washed with PBS. Cell lysates were obtained immediately or 60, 120, and 240 minutes after the removal of GSNO. The samples were protected from UV light exposure. Lysates were assayed for protein concentration, and equal amounts of protein per sample were used for organic mercury-assisted capture.

VLCAD = target: T2, VLCAD (Mus musculus, UniProt P50544); experiment: VLCAD activity assay (ferricenium) in liver homogenates from injected ob/ob mice
T2 sequence (P50544 42-656): T1 sequence (P50544 42-656)

[1] = 60, 120, 240 minutes after removal of GSNO and washing

- abundance of S-nitrosylated VLCAD after removal of GSNO (wild-type VLCAD; [1]): declined over time
- enzymatic-specific activity after removal of GSNO (wild-type VLCAD; [1]): declined over time
- VLCAD-specific activity (wild-type VLCAD; GSNO treatment, 0.125 mM palmitoyl-CoA): significantly higher
- acyl dehydrogenase-mediated oxidation of palmitoyl-CoA (VLCAD; GSNO-treated ob/ob mouse liver): increase
- apparent KM in PBS-injected ob/ob homogenates relative to wild-type and GSNO-injected ob/ob mice (VLCAD; liver homogenates): more than fivefold higher
SMILES: N[C@@H](CCC(=O)N[C@@H](CSN=O)C(=O)NCC(=O)O)C(=O)O [GSNO, S-nitrosoglutathione]
